The text below walks through data of patent US20090075867A1, “Triazine compounds and compositions thereof for the treatment of cancers” (priority 2005, published 2009).

SMILES strings stand for the structures. Like-named read-outs stand apart in the source and are kept apart here. Where only a bound is given, the exact number is not on record here.

For test [1], the system named is PBML, Peripheral Blood Mononuclear Leukocytes. Nature of the test: In vitro cytotoxicity (MTT) on PBML. The format is cell-based. To be noted: Leukocyte. As for the experimental part:
(§1) This assay was performed to determine the effect of compounds of the present invention on cell cytotoxicity. Cells were incubated in presence or absence of compounds in their respective conditioned media. […] The supernatant was discarded and 100 μl of dimethylsulfoxide (DMSO) was added. Absorbance was read at […] with an ELISA Tecan SUNRISE™ plate reader. The control group consisted of cells without compounds and is referred to as 100% of viable cells. IC50 was determined using PRISM® software.
(§2) The predictive utility of cell-based cytotoxicity assays to assess the potential in vivo anticancer activity of compounds with selected cancer cell lines is well established in the art and the use of whole cells, instead of isolated protein receptors or enzymes, provides a more reliable determination of activity. See, for example, Paull et al. J. Natl. Cancer Inst. 81:1088-1092 (1989); Monks et al. J. Natl. Cancer Inst. 83:757-766 (1991); Bandes et al. J. Natl. Cancer Inst. 86:770-775 (1994); and Kamate et al. Intl. J. Cancer 100:571-579 (2002).

Another test deals with Hep-G2, human liver cell. Nature of the test: In vitro cytotoxicity (MTT) on Hep-G2. Type of test: cell-based. As for the experimental part: as §1, §2
The subject of test [2] is B16F10, murine melanoma cell. The experiment in a line: In vitro cytotoxicity (MTT) on B16F10. The format is cell-based. To be noted: Mus musculus, B16-F10. As for the experimental part:
as §1, §2

Test [3] has as its system PC-3, human prostate carcinoma cell. Nature of the test: In vitro cytotoxicity (MTT) on PC-3. The format is cell-based. On the procedure:
as §1, §2

Another test concerns B16F10 lung metastases. Type of test: in vivo. To be noted: for inhibition of the number of tumor nodules in lungs: FIG. 3, 50 mg/kg i.v. on day -3, -2, -1, 3, 5 and 7, p<0.001; for reduction of the number of tumor nodules: FIG. 4. As for the experimental part: Female 6-8-week old C57BL/6 mice were injected intravenously on day 0 with 1-2.5×10^5 B16F10 melanoma cells from ATCC (source of cell culture, Dr. I. J. Fidler). B16F10 melanoma cells are a highly metastatic cell line which preferentially forms nodules in the lungs. Cells were cultured in DMEM supplemented with 10% fetal bovine serum. […] Fourteen days after inoculation, mice were sacrificed and their lungs were removed, rinsed in PBS, and placed in Bouin's fixative. The number of metastatic nodules (black colonies) on the surface of the lungs were counted.

Test [4] relates to NHDF, Normal Human Dermal Fibroblast. Nature of the test: In vitro cytotoxicity (MTT) on NHDF. Type of test: cell-based. On the procedure: as §1, §2
Test [5] deals with P815, murine mastocytoma cell. The experiment in a line: In vitro cytotoxicity (MTT) on P815. To be noted: Mus musculus. The format is cell-based. As for the experimental part:
as §1, §2

Test [6] concerns CAKI-2, human kidney cell. The experiment in a line: In vitro cytotoxicity (MTT) on CAKI-2. The format is cell-based. On the procedure: as §1, §2
The test system of a further test is DA-3. Nature of the test: In vitro cytotoxicity (MTT) on DA-3. Type of test: cell-based, BALB/c mice. The conditions noted are these: Mus musculus. As for the experimental part: as §1, §2
(§3) The syngeneic tumor DMBA3 (DA-3, breast carcinoma model) arose from a preneoplastic lesion treated with 7,12-dimethylbenzanthracene in female BALB/c mice. DA-3 cells were grown as monolayer cultures in plastic flasks in RPMI-1640 containing 0.1 mM nonessential amino acids, 0.1 μM sodium pyruvate, 2 mM L-glutamine. This was further supplemented with 50 μM 2-mercaptoethanol and 10% fetal bovine serum. The DA-3 tumors were serially passage in vivo by intradermal inoculation of 5×10^5 viable tumor cells to produce localized tumors in 6- to 8-week old BALB/c mice. The animals were then serially monitored by manual palpation for evidence of tumor. Mice were treated at day 11, 18 and 25 with cyclophosphamide (100 mg/kg) and at day 11, 12, 13, 15, 18, 20, 22, 25, 27 and 29 with compound 1, 2, 3 or 8 (50 mg/kg). Mice were sacrificed at day 43. Serial tumor volume was obtained by bi-dimensional diameter measurements with calipers, using the formula 0.4 (a×b^2) where “a” was the major tumor diameter and “b” the minor perpendicular diameter. […] The National Cancer Institute (USA) defines the product as effective if T/C is ≦40%.

A further test has as its system B16F10 primary tumors. Nature of the test: Antitumor effects on a primary B16F10 melanoma tumor. The format is in vivo, C57BL/6 mice. To be noted: 50 mg/kg i.v. on day 14, 16 and 18. On the procedure:
Female 6-8 week old C57BL/6 mice were injected intradermally on day 0 with 3.75×10^4 B16F10 melanoma cells from ATCC (source of cell culture, Dr. I. J. Fidler). On day 14, tumors reached […] and animals were randomized for treatments. Animals were then injected i.v. with saline (negative control) or compounds (50 mg/kg) on day 14, 16 and 18 or 10 mg/kg doxorubicin (Dox, positive control) on day 14. Mice were sacrificed on day 29. Body weight and tumor volume were recorded. Serial tumor volume was obtained by bi-dimensional diameter measurements with calipers, using the formula 0.4 (a×b^2) where “a” was the major tumor diameter and “b” the minor perpendicular diameter.
T/C is calculated as (Treated tumor volume/Control tumor volume)×100%. Compound 2 induced a weak reduction (T/C around 70%) of the tumor volume compared to the control.

Another test relates to DA-3 breast tumors. The experiment in a line: Antitumor effects on a primary DA-3 breast tumor. Type of test: in vivo, BALB/c mice. On the procedure: as §3
In other trials, mice were treated with one intratumoral injection of compound 2 or cyclophosphamide (three doses) or intratumoral injection of compound 2 in combination with cyclophosphamide.

The mark [7] stands for this setting: FIG. 8, combination of cyclophosphamide and intratumoral injection of compound 2.

As for `Oc1ccc(CCNc2nc(NCCNc3nc(NCCc4ccc(O)cc4)nc(Nc4ccccc4)n3)nc(Nc3ccccc3)n2)cc1` [Compound 1], the half-maximal inhibitory concentration (IC50) in test [1] (24-hour cell culture) came out at 98 µM; in test [1] (72-hour cell culture), 45 µM; in the test with Hep-G2, human liver cell (HepG2, 24-hour cell culture), 19 µM; in the test with Hep-G2, human liver cell (HepG2, 72-hour cell culture), 23 µM; in [2] (24-hour cell culture), 6 µM; in test [2] (72-hour cell culture) it was 6 µM. In addition, the IC50 in [3] (24-hour cell culture) was 8.3 µM; in test [3] (72-hour cell culture) it was 8.3 µM; in test [4] (24-hour cell culture) it was more than 100 µM; in test [4] (72-hour cell culture) it was 16 µM; in test [5] (24-hour cell culture) it was 34 µM; in test [5] (72-hour cell culture) it was 34 µM. Further, the IC50 in test [6] (24-hour cell culture) is more than 40 µM; in test [6] (72-hour cell culture), 15 µM; in the test on DA-3 (24-hour cell culture), 4 µM; in the test with DA-3 (72-hour cell culture), 4.2 µM. The “inhibition of the number of tumor nodules in lungs” value (shortened to “inhibition of the number … in lungs”) in the test on B16F10 lung metastases was “significant inhibition”.
For `Nc1ccc(CCNc2nc(Nc3ccc(CCNc4nc(NCCO)nc(Nc5cccc(N)c5)n4)cc3)nc(Nc3cccc(N)c3)n2)cc1` [Compound 2], the half-inhibitory concentration (IC50) in test [1] (24-hour cell culture) is more than 100 µM; in test [1] (72-hour cell culture), 10 µM; in the test with Hep-G2, human liver cell (HepG2, 24-hour cell culture) it was more than 40 µM; in the test with Hep-G2, human liver cell (HepG2, 72-hour cell culture), more than 40 µM; in [2] (24-hour cell culture), 1 µM; in [2] (72-hour cell culture) it was 1 µM. The IC50 in [3] (24-hour cell culture) was 2.3 µM; in [3] (72-hour cell culture) it was 4 µM; in test [4] (24-hour cell culture), more than 100 µM; in test [4] (72-hour cell culture), 16 µM; in [5] (24-hour cell culture) it was 66.5 µM; in [5] (72-hour cell culture), 2.2 µM. The IC50 is more than 40 µM in test [6] (24-hour cell culture), more than 40 µM in test [6] (72-hour cell culture), 2 µM in the test on DA-3 (24-hour cell culture) and 1.9 µM in the test with DA-3 (72-hour cell culture). Besides, the “T/C (Treated tumor volume/Control tumor volume)” value in the test with B16F10 primary tumors (FIG. 1 trial) is recorded as “around 70%”. In addition, the “T/C, inhibition of tumor volume” value with DA-3 breast tumors (setting [7]) was 10%. Besides, in the test with DA-3 breast tumors (setting [7]), the “total tumor regressions at day 46” value is reported as “four”. Further, the “total tumor regression at day 46” value in the test on DA-3 breast tumors (FIG. 8, one intratumoral injection of compound 2 alone) is “one”. In the test with B16F10 lung metastases, the “inhibition of the number … in lungs” value was “significant inhibition”. For the same compound, the “reduction of the number of tumor nodules” value is on record as 95% in the test on B16F10 lung metastases (compound 2 in combination with doxorubicin (1 mg/kg)) and 87% with B16F10 lung metastases (used alone, compound 50 mg/kg i.v., doxorubicin 1 mg/kg).
Take `Nc1ccc(CCNc2nc(NCCCCO)nc(Nc3cccc(N)c3)n2)cc1` [Compound 8]: the IC50 in test [1] (24-hour cell culture) is more than 100 µM; in test [1] (72-hour cell culture), more than 100 µM; in [2] (24-hour cell culture), 33 µM; in [3] (24-hour cell culture), 94 µM; in test [3] (72-hour cell culture) it was 100 µM; in test [4] (24-hour cell culture), more than 100 µM. Besides, the IC50 was more than 100 µM in test [4] (72-hour cell culture), more than 100 µM in test [5] (24-hour cell culture), 92 µM in [5] (72-hour cell culture) and 85 µM in the test with DA-3 (24-hour cell culture). Moreover, the “T/C (Treated tumor volume/Control tumor volume)” value with B16F10 primary tumors (FIG. 2 trial) was “around 70%”. For the same compound, the “inhibition of the tumor volume” value in the test on DA-3 breast tumors (FIG. 6, 50 mg/kg) was “All compounds except compound 8 induced a significant inhibition”. Besides, the “inhibition of the number … in lungs” value with B16F10 lung metastases is recorded as “significant inhibition”.
